The text below walks through data of ChEMBL document CHEMBL4184323, “Structure-Guided Design, Synthesis, and Characterization of Next-Generation Meprin β Inhibitors” (J Med Chem, 2018).

Structures are written as SMILES. Bounds are passed on as bounds.

Data set [1] is described as follows: Cmax in Sprague-Dawley rat at 10 mg/kg, ip by LC-MS analysis. It is filed as ADME, organism-based. The arrangement: dose 10 mg/kg, route intraperitoneal. The note with it: in vivo.
Data set [2] in a line: Tmax in Sprague-Dawley rat at 10 mg/kg, ip by LC-MS analysis. The data set is classed as ADME, organism-based. The note with it: in vivo.
A further data set addresses MMP13 (Homo sapiens, UniProt P45452). The data set is described as follows: Inhibition of human MMP13 assessed as residual activity using Mca-PLGL-(DapDnp)-AR-NH2 as substrate at 200 uM by fluorescence assay relative to control. As to conditions: human MMP13 enzyme, probe Mca-PLGL-(DapDnp)-AR-NH2, read-out: Activity.
For a further data set, the target named is CYP2C9 (Homo sapiens, UniProt P11712). As to the kind of experiment: Inhibition of recombinant human CYP2C9 expressed in baculosomes assessed as residual activity at 25 uM using BOMCC substrate by fluorescence assay relative to control. The note with it: probe BOMCC, read-out: Activity. It is filed as ADME.
In another data set the target is MMP9 (Homo sapiens, UniProt P14780). The data set is described as follows: Inhibition of human MMP9 assessed as residual activity using Mca-PLGL-(DapDnp)-AR-NH2 as substrate at 200 uM by fluorescence assay relative to control. As to conditions: human MMP9 enzyme, probe Mca-PLGL-(DapDnp)-AR-NH2, read-out: Activity.
The next data set addresses MMP2 (Homo sapiens, UniProt P08253). The data set is described as follows: Inhibition of human MMP2 assessed as residual activity using Mca-PLGL-(DapDnp)-AR-NH2 as substrate at 200 uM by fluorescence assay relative to control. The note with it: human MMP2 enzyme, probe Mca-PLGL-(DapDnp)-AR-NH2, read-out: Activity.
Data set [3] is described as follows: Clearance in Sprague-Dawley rat at 6 mg/kg, iv by LC-MS analysis. It is filed as ADME, organism-based. As to conditions: in vivo.
The nature of data set [4]: Volume of distribution at steady state in Sprague-Dawley rat at 6 mg/kg, iv by LC-MS analysis. The data set is classed as ADME, organism-based. As to conditions: in vivo, read-out: Vdss.
The next data set relates to HepG2. As to the kind of experiment: Cytotoxicity in human HepG2 cells assessed as cell viability at 100 uM after 24 hrs by CytoTox-ONE-based assay relative to control. The data set is classed as functional. As to conditions: HepG2, 24 h, read-out: Activity.
Data set [5] in a line: Cmax in Sprague-Dawley rat at 5 mg/kg, po by LC-MS analysis. As to conditions: in vivo. It is filed as ADME, organism-based. The arrangement: dose 5 mg/kg, route oral.
The species entered for the next data set is Homo sapiens. The data set is described as follows: Selectivity ratio of IC50 for recombinant human meprin alpha expressed in insect cells to IC50 for recombinant human meprin beta expressed in yeast.
In another data set the target is T1, ADAM10 (Homo sapiens, UniProt O14672).
T1 sequence (O14672 whole entry): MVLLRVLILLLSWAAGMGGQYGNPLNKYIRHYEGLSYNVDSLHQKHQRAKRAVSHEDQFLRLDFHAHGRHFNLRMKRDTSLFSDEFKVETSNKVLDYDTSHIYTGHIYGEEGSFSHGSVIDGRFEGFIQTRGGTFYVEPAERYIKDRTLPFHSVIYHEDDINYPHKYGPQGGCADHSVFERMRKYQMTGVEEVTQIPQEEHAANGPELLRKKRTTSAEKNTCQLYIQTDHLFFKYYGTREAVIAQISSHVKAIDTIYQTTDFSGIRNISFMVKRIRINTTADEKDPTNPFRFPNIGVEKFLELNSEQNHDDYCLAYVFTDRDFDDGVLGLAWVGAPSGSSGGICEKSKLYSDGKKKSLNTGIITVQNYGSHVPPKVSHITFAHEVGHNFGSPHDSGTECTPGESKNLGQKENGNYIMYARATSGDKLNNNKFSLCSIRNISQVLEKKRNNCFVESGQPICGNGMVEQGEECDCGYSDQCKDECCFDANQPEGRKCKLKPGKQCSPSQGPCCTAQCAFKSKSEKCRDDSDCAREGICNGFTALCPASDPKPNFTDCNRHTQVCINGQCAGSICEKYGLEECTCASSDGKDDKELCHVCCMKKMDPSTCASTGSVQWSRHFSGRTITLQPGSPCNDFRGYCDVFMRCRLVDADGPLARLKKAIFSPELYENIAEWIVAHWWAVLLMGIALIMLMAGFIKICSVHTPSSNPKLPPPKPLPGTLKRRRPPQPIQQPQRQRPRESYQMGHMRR
The data set is described as follows: Inhibition of human ADAM10 assessed as residual activity using Abz-LANAVRSSSR-(DapDnp)-AR-NH2 as substrate at 200 uM by fluorescence assay relative to control. As to conditions: human ADAM10 enzyme, probe Abz-LANAVRSSSR-(DapDnp)-AR-NH2, read-out: Activity.

Data set [6] in a line: Drug absorption in Sprague-Dawley rat at 10 mg/kg, ip by LC-MS analysis. The data set is classed as ADME, organism-based. As to conditions: in vivo, read-out: Fabs.
The nature of data set [7]: Half life in Sprague-Dawley rat at 6 mg/kg, iv by LC-MS analysis. The data set is classed as ADME, organism-based. As to conditions: in vivo.
The nature of data set [8]: Drug absorption in Sprague-Dawley rat at 5 mg/kg, po by LC-MS analysis. As to conditions: in vivo, read-out: Fabs. The data set is classed as ADME, organism-based.
In a further data set the target is CYP3A4 (Homo sapiens, UniProt P08684). As to the kind of experiment: Inhibition of recombinant human CYP3A4 expressed in baculosomes assessed as residual activity at 25 uM using BOMCC substrate by fluorescence assay relative to control. The data set is classed as ADME. As to conditions: probe BOMCC, read-out: Activity.
The subject of another data set is SH-SY5Y. As to the kind of experiment: Cytotoxicity in human SH-SY5Y cells assessed as cell viability at 100 uM after 24 hrs by CytoTox-ONE-based assay relative to control. The data set is classed as functional. As to conditions: read-out: Activity.
Another data set has as its target T2, meprin alpha (Homo sapiens, UniProt Q16819).
T2 sequence (Q16819 whole entry): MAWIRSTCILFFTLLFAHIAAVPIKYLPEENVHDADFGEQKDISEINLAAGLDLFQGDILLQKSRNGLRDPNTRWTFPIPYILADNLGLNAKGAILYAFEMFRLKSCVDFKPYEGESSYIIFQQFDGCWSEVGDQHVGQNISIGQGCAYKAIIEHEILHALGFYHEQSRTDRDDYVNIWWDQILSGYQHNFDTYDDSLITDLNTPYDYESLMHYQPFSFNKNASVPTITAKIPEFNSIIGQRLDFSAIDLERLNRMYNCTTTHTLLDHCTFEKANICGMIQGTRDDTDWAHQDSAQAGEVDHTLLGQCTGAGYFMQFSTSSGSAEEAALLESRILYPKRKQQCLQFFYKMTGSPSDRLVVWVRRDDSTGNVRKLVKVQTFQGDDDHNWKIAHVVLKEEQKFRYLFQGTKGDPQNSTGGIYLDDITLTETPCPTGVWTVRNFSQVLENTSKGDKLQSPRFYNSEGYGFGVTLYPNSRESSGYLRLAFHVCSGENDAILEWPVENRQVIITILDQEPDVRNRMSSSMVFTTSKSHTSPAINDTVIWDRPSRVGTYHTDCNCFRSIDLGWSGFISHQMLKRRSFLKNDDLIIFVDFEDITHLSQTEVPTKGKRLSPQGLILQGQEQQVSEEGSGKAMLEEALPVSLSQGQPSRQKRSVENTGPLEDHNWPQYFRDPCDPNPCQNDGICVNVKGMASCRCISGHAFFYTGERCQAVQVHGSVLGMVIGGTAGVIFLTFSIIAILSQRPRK
The data set is described as follows: Inhibition of recombinant human meprin alpha expressed in insect cells assessed as residual activity using Abz-YVADAPK(Dnp)G-OH as substrate at 200 uM by fluorescence assay relative to control. The note with it: probe Abz-YVADAPK(Dnp)G-OH, read-out: Activity.

MMP2, sequence (P08253 whole entry): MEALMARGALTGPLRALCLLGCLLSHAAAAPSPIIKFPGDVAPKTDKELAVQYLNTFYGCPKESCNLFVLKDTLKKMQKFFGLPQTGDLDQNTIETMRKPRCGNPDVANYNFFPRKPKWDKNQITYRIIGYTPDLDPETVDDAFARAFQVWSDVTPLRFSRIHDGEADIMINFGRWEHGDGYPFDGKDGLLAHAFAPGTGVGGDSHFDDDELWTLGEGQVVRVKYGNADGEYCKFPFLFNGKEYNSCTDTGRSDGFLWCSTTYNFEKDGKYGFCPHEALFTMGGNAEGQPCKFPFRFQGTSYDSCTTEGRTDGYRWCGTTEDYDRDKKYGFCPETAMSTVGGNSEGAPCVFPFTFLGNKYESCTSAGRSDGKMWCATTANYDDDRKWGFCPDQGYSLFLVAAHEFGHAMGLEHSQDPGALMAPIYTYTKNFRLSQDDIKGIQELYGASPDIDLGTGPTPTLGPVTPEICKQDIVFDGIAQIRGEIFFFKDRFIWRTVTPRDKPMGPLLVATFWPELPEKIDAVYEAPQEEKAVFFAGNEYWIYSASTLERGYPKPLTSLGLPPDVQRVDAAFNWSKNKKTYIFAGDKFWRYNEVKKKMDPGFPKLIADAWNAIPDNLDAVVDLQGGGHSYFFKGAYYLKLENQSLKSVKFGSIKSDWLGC
CYP3A4, sequence (P08684 whole entry): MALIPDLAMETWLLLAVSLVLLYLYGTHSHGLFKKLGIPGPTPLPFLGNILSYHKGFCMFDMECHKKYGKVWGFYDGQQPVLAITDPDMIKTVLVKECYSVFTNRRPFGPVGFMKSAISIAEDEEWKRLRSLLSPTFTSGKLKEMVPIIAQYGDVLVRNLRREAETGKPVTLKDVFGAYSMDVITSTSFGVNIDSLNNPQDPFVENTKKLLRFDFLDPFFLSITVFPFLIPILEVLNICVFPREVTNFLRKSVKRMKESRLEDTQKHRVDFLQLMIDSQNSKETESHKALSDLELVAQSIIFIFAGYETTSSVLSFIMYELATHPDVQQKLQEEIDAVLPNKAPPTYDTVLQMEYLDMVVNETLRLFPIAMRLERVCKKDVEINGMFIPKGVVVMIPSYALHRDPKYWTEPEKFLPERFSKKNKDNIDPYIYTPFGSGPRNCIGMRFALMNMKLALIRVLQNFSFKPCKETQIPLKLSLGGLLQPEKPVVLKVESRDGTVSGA
CYP2C9, sequence (P11712 whole entry): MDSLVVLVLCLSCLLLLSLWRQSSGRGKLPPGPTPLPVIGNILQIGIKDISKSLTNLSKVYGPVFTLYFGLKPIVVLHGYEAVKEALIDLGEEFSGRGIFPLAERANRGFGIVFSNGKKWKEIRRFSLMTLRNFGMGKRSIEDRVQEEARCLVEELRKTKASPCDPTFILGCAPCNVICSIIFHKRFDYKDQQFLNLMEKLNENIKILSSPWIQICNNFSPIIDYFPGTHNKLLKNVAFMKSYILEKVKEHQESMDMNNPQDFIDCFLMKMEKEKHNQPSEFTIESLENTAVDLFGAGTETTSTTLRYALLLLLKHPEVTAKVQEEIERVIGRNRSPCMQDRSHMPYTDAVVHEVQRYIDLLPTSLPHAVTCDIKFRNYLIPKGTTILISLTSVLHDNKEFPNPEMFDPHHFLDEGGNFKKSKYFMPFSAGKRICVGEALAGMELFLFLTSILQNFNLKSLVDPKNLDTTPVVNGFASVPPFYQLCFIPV
MMP9, sequence (P14780 whole entry): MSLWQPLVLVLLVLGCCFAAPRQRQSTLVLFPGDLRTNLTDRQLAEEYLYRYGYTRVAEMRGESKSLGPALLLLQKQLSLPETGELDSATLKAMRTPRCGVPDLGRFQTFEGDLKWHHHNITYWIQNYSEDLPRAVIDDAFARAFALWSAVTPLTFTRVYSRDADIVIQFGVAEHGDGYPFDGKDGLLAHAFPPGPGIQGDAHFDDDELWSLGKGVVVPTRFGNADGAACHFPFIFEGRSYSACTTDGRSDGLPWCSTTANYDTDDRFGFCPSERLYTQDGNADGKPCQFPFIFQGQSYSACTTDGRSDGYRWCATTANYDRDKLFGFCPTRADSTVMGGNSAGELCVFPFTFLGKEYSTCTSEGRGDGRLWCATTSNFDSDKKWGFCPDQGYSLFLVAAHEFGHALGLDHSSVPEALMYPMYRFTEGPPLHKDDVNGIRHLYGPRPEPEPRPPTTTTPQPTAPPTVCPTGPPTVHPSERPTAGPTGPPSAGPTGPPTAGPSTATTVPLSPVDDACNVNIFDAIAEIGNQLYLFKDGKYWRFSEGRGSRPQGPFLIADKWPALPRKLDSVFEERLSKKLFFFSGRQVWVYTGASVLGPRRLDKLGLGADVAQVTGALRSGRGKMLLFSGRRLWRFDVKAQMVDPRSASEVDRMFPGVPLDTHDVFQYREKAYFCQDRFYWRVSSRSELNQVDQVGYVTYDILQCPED

`O=C(CN(Cc1cccc(C(=O)O)c1)Cc1cccc(C(=O)O)c1)NO`: the Cmax (commonly the maximum level reached in the sampled fluid or tissue) in data set [1] amounted to 6460 ng/mL; in data set [5], 340 ng/mL. Besides, in data set [2], the Tmax (commonly the time from dosing to the highest level) amounted to 7.2 min. Besides, the activity at 200 µM on MMP13 was 78%; at MMP9, 74%; at MMP2, 64%; at ADAM10, 93%; on meprin alpha, below 10%. Also, the activity at 25 µM at CYP2C9 was 101%; on CYP3A4, 86%. The clearance (as a rule, the rate of elimination divided by the concentration) in data set [3] was 29.7 mL/min/kg. In addition, in [4], the Vd was determined as 0.42 L/kg. Also, the results for the viability at 100 µM in the data set on HepG2 and with SH-SY5Y were 97% and 96%, respectively. Besides, the Ratio IC50 in the data set filed under Homo sapiens came to 300. Moreover, the Fa stood at 84% in data set [6] and 13% in data set [8]. The half-life (commonly the time needed for the level to fall by half in the phase considered) in data set [7] is 2.5 h.
